Each structure is given as a SMILES string. pIC50: −log10 of the molar value.

Data on 7 compounds can be found in patent US20040254241A1, “Aryl sulfamate derivatives” (priority 2004, published 2004).

The target of this experiment is T1, recombinant human estrone sulfatase (Homo sapiens, UniProt P08842).
T1 construct: made in house; host or cells: Chinese Hamster Ovary (CHO) cells
T1 sequence (P08842 22-583): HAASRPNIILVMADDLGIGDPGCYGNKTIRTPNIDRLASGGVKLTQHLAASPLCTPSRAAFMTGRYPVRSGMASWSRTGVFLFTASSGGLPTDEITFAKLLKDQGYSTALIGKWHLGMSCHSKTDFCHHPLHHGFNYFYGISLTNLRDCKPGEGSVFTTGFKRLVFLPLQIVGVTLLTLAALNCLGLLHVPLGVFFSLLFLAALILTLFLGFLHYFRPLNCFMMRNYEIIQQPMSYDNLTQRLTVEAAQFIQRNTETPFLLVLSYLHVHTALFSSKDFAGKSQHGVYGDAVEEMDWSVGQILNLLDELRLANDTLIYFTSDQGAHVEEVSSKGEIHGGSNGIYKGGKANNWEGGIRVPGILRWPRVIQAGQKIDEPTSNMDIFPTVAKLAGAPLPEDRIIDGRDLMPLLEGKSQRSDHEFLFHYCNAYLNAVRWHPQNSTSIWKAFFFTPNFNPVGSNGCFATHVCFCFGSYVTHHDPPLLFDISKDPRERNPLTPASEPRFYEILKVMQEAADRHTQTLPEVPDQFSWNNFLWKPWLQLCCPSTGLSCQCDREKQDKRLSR
Nature of the experiment: Test for inhibition of estrone sulfatase (steroid sulfatase). It counts as biochemical. To be noted: 4-methylumbelliferyl sulfate 0.3 mmol/L, phosphate buffer pH 7.5, 37° C., 1 hour; enzyme expressed in CHO cells, partially purified; read-out: Inhibitory activity against steroid sulfatase IC50. The procedure: Test Example 1: Test for Inhibition of Estrone Sulfatase (Steroid Sulfatase)
4-Methylumbelliferyl sulfate (final concentration 0.3 mmol/L), recombinant human estrone sulfatase (7.8 ng/well), and each solution of the test compound having each test concentrations (test compound was dissolved in 0.001 mL of DMSO) were added to a phosphate buffer (pH 7.5) (final volume 0.1 mL) containing 0.28 mol/L sucrose and 0.04 mol/L nicotinamide. An enzyme reaction was conducted at 37° C. for 1 hour. The human estrone sulfatase gene was introduced into Chinese Hamster Ovary (CHO) cells, and the recombinant human estrone sulfatase was expressed, then it was used after partial purification. After completing the enzyme reaction, 2 mol/L glycine-sodium hydroxide solution (pH 10.3) (0.13 mL) was added and stirred. Using a fluorescent plate reader (Cyto Fluor II), the fluorescent strength of the generated 4-methylumbelliferone was measured. The measurements were conducted in duplicate at the same time. The fluctuations within the assay were within 10%. An enzyme reaction without the presence of a test compound was conducted at the same time. The inhibitory activity against estrone sulfatase for each concentration of the test compounds was calculated using the following equation.
A: Amount of 4-methylumbelliferone when test compound is present
B: Amount of 4-methylumbelliferone when test compound is not present
Inhibitory activity against estrone sulfatase [formula]
The inhibitory activity against estrone sulfatase of the aryl sulfamate derivative can be expressed as the concentration (IC50) of aryl sulfamate derivative at which the estrone sulfatase activity in the presence of the aryl sulfamate derivative is half of that when no test compound is added.

As a reminder, the pIC50 is the IC50 on a negative log10 scale, so that one unit is a factor of ten. On to `CCCCCCCCCNC(=O)/C(C#N)=C(\C)c1ccc(OS(N)(=O)=O)c(Br)c1` [Compound 56], for which the pIC50 is 7.39. In the case of `CCCCCCCCCNC(=O)/C(C#N)=C(\C)c1ccc(OS(N)(=O)=O)c(Cl)c1` [Compound 55], the negative logarithm of the IC50 (pIC50) was 7.42. Consider `CCCCCCCCCNC(=O)/C(C)=C/c1ccc(OS(N)(=O)=O)cc1` [Compound 3], for which the negative-log IC50 (pIC50) was 7.21.

As for `CCCCCCCCCNC(=O)/C(C#N)=C(\C)c1ccc(OS(N)(=O)=O)cc1` [Compound 13], the pIC50 is 7.92. With `CCCCCCCCCNC(=O)/C(Br)=C/c1ccc(OS(N)(=O)=O)cc1` [Compound 42], the negative logarithm of the IC50 (pIC50) is 7.27. Consider `CCCCCCCCCNC(=O)/C=C/c1ccc(OS(N)(=O)=O)cc1` [Compound 1], for which the pIC50 is 7.14. Turning to `CCCCCCCCCNC(=O)/C(I)=C/c1ccc(OS(N)(=O)=O)cc1` [Compound 43], the pIC50 was 7.23.
